Results reported in article PMC11407758, “Integrated stress response (ISR) activation and apoptosis through HRI kinase by PG3 and other p53 pathway-restoring cancer therapeutics” (Oncotarget, 2024).

Legend:
[1] = system: HCT116 (WT); experiment: Cell viability assay (CellTiterGlo), HCT116 WT; type: cell-based, human; settings: for IC50: 72 h, CellTiterGlo
Procedure: (§1) Figure 1 PG3 inhibits cell proliferation and growth in a p53-indepent manner. (A–E) Cell viability assay, dose response curves and IC50 value measurements in a panel of cancer cell lines and normal cells. Cells were treated with different concentrations of PG3, PG3-Oc (Oc), obatoclax (Ob), prodigiosin (P) or DMSO for 72 h. Luciferase activity was imaged by the IVIS Imaging System after treatment. Cell viability data were normalized to those of DMSO treatment control in each cell line and data analyses were performed using PRISM4 software. IC50 data are expressed as the mean ±SD (normal; n = 3).
as §1, with “2 p53-dependent inhibition of” for “1 PG3 inhibits”, “is only observed at specific concentrations. (A–J)” for “and growth in a p53-indepent manner. (A–E)”, “ZMC1, CP-313908, APR-246, Ellipticine, Nutalin-3a” for “PG3, PG3-Oc (Oc), obatoclax (Ob), prodigiosin (P)”
(§2) Cells were seeded in 96-well plates (6 × 10^3 cells/well). Cells were treated with different concentrations of compounds or dimethyl sulfoxide (DMSO) as a control for 72 hours. The cell viability was assessed by CellTiterGlo bioluminescent cell viability assay (Promega), following the manufacturer’s protocol. Bioluminescence imaging was measured using the IVIS imager. The percentage of cell viability (mean ± SEM) at each dose was calculated against the respective DMSO control. The IC50 values were determined from the sigmoidal dose-response curves using GraphPad Prism.

[2] = system: p53 protein; experiment: Western blot, p53 protein levels; type: cell-based, human; settings: for wild-type p53 protein level: HCT116, 24 h; for endogenous mutant p53 R273H protein level: HT29, 24 h; for endogenous mutant p53 R175H protein level: TOV-112D; for endogenous mutant p53 R175H protein level / exogenous mutant p53 R175H protein level: 24 h; for exogenous mutant p53 R175H protein level: engineered HCT116-R175H cells
Procedure: Cells were treated for 24 h with indicated compounds, concentrations and cell lines. Abbreviations: S.E.: Short exposure; L.E.: Long exposure.
(§3) After treatment, protein lysates were collected for Western blot analysis. A total of 15 μg of protein was used for SDS-PAGE. After primary and secondary antibody incubations, the signal was detected by a chemiluminescence detection kit, imaged by Syngene (Imgen Technologies). Antibodies for NAG-1 (GDF15) and P53 were from Santa Cruz Biotechnology; for caspase 8, cleaved caspase 8, caspase 9, caspase 3, cleavage PARP, eIF2α, p-eIF2α (Ser51), CHOP, ATF4, DR5, and PUMA were from Cell Signaling Technology. Noxa and p21 were from Calbiochem. Ran was from BD Biosciences.

[3] = system: HT29, TOV-112D, isogenic HCT116 cell lines, HFF-1 and MRC5; experiment: Cell viability assay, panel of cancer cell lines and normal cells (results in words); type: cell-based, human
Procedure: as §1, with “2 p53-dependent inhibition of” for “1 PG3 inhibits”, “is only observed at specific concentrations. (A–J)” for “and growth in a p53-indepent manner. (A–E)”, “ZMC1, CP-313908, APR-246, Ellipticine, Nutalin-3a” for “PG3, PG3-Oc (Oc), obatoclax (Ob), prodigiosin (P)”
as §2

[4] = system: p21; experiment: Western blot, p21 induction; type: cell-based, human
Procedure: (§4) Figure 4 Activation of ATF4 and up-regulation of typical p53 target genes. (A–E) Western blot analysis of p53 protein levels and upregulation of ATF4, PUMA, DR5 and p21. Cells were treated for 24 h with indicated compounds, concentrations and cell lines. Abbreviations: S.E.: Short exposure; L.E.: Long exposure.
as §3

[5] = system: TOV-112D (R175H); experiment: Cell viability assay (CellTiterGlo), TOV-112D; type: cell-based, human
Procedure: as §1
as §1, with “2 p53-dependent inhibition of” for “1 PG3 inhibits”, “is only observed at specific concentrations. (A–J)” for “and growth in a p53-indepent manner. (A–E)”, “ZMC1, CP-313908, APR-246, Ellipticine, Nutalin-3a” for “PG3, PG3-Oc (Oc), obatoclax (Ob), prodigiosin (P)”
as §2

[6] = system: HCT116 (P53−/−); experiment: Cell viability assay (CellTiterGlo), HCT116 p53-/-; type: cell-based, human; settings: for IC50: 72 h, CellTiterGlo
Procedure: as §1
as §1, with “2 p53-dependent inhibition of” for “1 PG3 inhibits”, “is only observed at specific concentrations. (A–J)” for “and growth in a p53-indepent manner. (A–E)”, “ZMC1, CP-313908, APR-246, Ellipticine, Nutalin-3a” for “PG3, PG3-Oc (Oc), obatoclax (Ob), prodigiosin (P)”
as §2

[7] = system: SW480 cells carrying a p53-responsive luciferase reporter; experiment: p53-responsive reporter assay; type: cell-based, human; settings: 6 hour and 15 hour time points
Procedure: SW480 cells carrying a p53-responsive luciferase reporter were used for assay of functional restoration of mutant p53. Cells were seeded in 96-well plates (5 × 10^4 cells/well) and were treated with compounds indicated for 6 and 15 h, respectively. Then, D-luciferin was added to each well with final concentration 100 μg/mL, and cells were imaged by using an IVIS Imaging System to detect luciferase activity.
p53-mutant SW480 human colon cancer cells, stably expressing a p53-responsive luciferase reporter, were used to assay functional restoration p53 pathway-dependent transcription in mutant p53-expressing tumor cells. Cells were seeded in 96-well plates (5 × 10^4 cells/well) and were treated with small-molecule compounds for 6 and 15 h, respectively. Then, D-luciferin was added to each well at a final concentration of 100 μg/mL, and cells were imaged by using an IVIS Imaging System (Xenogen) to detect luciferase activity.

[8] = system: PUMA; experiment: Western blot, PUMA induction; type: cell-based, human
Procedure: as §4, §3

[9] = system: ATF4; experiment: Western blot, ATF4 induction; type: cell-based, human; settings: five cancer cell lines, 24 h
Procedure: as §4, §3

[10] = system: HCT116 (R175H); experiment: Cell viability assay (CellTiterGlo), HCT116 R175H; type: cell-based, human; settings: for IC50: 72 h, CellTiterGlo
Procedure: as §1
as §1, with “2 p53-dependent inhibition of” for “1 PG3 inhibits”, “is only observed at specific concentrations. (A–J)” for “and growth in a p53-indepent manner. (A–E)”, “ZMC1, CP-313908, APR-246, Ellipticine, Nutalin-3a” for “PG3, PG3-Oc (Oc), obatoclax (Ob), prodigiosin (P)”
as §2

[11] = system: DR5; experiment: Western blot, DR5 induction; type: cell-based, human
Procedure: as §4, §3

[12] = system: HFF-1 (human foreskin fibroblast cell with wild-type p53); experiment: Cell viability assay (CellTiterGlo), HFF-1 normal cells; type: cell-based; settings: Homo sapiens, HFF-1; 72 h, CellTiterGlo, normal cells; read-out: IC50 values, HFF-l (WT)
Procedure: as §1
as §1, with “2 p53-dependent inhibition of” for “1 PG3 inhibits”, “is only observed at specific concentrations. (A–J)” for “and growth in a p53-indepent manner. (A–E)”, “ZMC1, CP-313908, APR-246, Ellipticine, Nutalin-3a” for “PG3, PG3-Oc (Oc), obatoclax (Ob), prodigiosin (P)”
as §2

[13] = system: HT29 (R273H); experiment: Cell viability assay (CellTiterGlo), HT29; type: cell-based, human; settings: Homo sapiens, HT-29; 72 h, CellTiterGlo
Procedure: as §1
as §1, with “2 p53-dependent inhibition of” for “1 PG3 inhibits”, “is only observed at specific concentrations. (A–J)” for “and growth in a p53-indepent manner. (A–E)”, “ZMC1, CP-313908, APR-246, Ellipticine, Nutalin-3a” for “PG3, PG3-Oc (Oc), obatoclax (Ob), prodigiosin (P)”
as §2

[14] = system: GCN2, PKR, eIF2α, ATF4, CHOP in HT29 cells; experiment: Western blot, ISR kinases / eIF2α / ATF4 / CHOP; type: cell-based, human; settings: pre-treatment 2 hours, then ONC201 or PG3 for 24 hour
Procedure: Figure 7 PG3 induces upregulation of ATF4 through ISR via HRI. (A) HT29 cells were treated with PG3, GSK2606414, TG and ONC201 respectively, or co-treatment with PG3/GSK2606414, PG3/TG, and PG3/ONC201 for 15 h. (B) MEF, MEF^PERK−/− and MEF^GCN2−/− cells were treated with PG3 and ONC201 for 16 hours. (C) HT29 cells were transfected with siControl, siPKR, siHRI and siPKR/siHRI for 24 hours and then treated with PG3 for 16 hours. (D) HCT116 p53^−/− cells were transfected with siControl and siHRI for 24 hours and then treated with PG3 for 16 hours. (E) HCT116 p53^−/− cells were treated with PG3 and ONC201 for indicated times. (F) PANC1-sgCtrl, -sgHRI and -sgPKR cell lines were treated with PG3 and imipridones (ONC201, ONC206 and ONC212) for 16 hours. Western blot was performed using indicated antibodies. (G) Proposed model of PG3-induced cell apoptosis through HRI/ATF4/PUMA axis. Abbreviation: L.E.: Long exposure.
as §3
Supplementary Figure 2: ROS and NO are not responsible for PG3-induced HRI activation. (A, B) cells were pre-treated
with ZnPP, L-NMMA, SA and NAC for 2 hours respectively, and then ONC201 or PG3 was added to the medium for 24 hour treatment.
Western blot was performed using indicated antibodies.
(1 picture or pasted object on this page, not shown here)

COCC1(CO)C(=O)C2CCN1CC2 (stereo not shown) [APR-246]
IC50 [1]: 33 µM | wild-type p53 protein level [2]: no effect | endogenous mutant p53 R273H protein level [2]: stabilizes | endogenous mutant p53 R175H protein level [2]: stabilizes | exogenous mutant p53 R175H protein level [2]: does not stabilize | inhibitory effects on normal cells ([3]; HFF-1 and MRC5, 0.08 μM): no detectable inhibitory effects | inhibition of proliferation ([3]; TOV-112D and HT29, 0.08 μM): potently inhibited | upregulation of p21 ([4]; HCT116 (p53 wild-type), 24 h): slightly induces p21 | upregulation of p21 ([4]; TOV-112D, 24 h): slightly induces p21 | inhibition of proliferation ([5]; TOV-112D, 6.67 μM): almost completely inhibited | IC50 [6]: 11.3 µM | fold more sensitive than the p53 wild-type HCT116 cell line ([6]; p53-null HCT116 vs HCT116 WT, 'at a concentration of 20 μM'): 2.9 fold | p53-responsive reporter activity ([7]; up to 60 μM): not able to activate the reporter | upregulation of PUMA ([8]; HCT116 (p53 wild-type), 24 h): upregulates PUMA | upregulation of ATF4 [9]: does not upregulate ATF4 | IC50 [10]: 8.87 µM | fold more sensitive than the p53 wild-type HCT116 cell line ([10]; p53-mutated R175H HCT116 vs HCT116 WT, 'at a concentration of 20 μM'): 3.7 fold

Cc1c2ccncc2c(C)c2c1[nH]c1ccccc12 [Ellipticine]
upregulation of DR5 ([11]; HCT116 (p53 wild-type), 24 h): slightly upregulates the short isomer of DR5 | upregulation of DR5 ([11]; HT29, 24 h): slightly upregulates the short isomer of DR5 | IC50 [12]: 6.07 µM | IC50 ([1]; Homo sapiens, HCT-116): 0.999 µM | selective toxicity among isogenic HCT116 cell lines ([1]; isogenic HCT116 cell lines, 1.11 μM): selective toxicity towards the p53-wild-type cell line | wild-type p53 protein level [2]: potently stabilizes | endogenous mutant p53 R273H protein level [2]: stabilized | endogenous mutant p53 R175H protein level [2]: mildly downregulates | exogenous mutant p53 R175H protein level [2]: upregulates | toxicity to normal cells ([3]; HFF-1 and MRC5, 0.04 to 3.33 μM): no significant toxicity | inhibition of proliferation ([3]; HT29 and TOV-112D, 0.04 to 3.33 μM): selectively inhibits the proliferation | upregulation of p21 ([4]; HCT116 (p53 wild-type), 24 h): significantly upregulates p21 | upregulation of p21 ([4]; HCT116 p53-R175H, 24 h): mildly upregulates p21 | upregulation of p21 ([4]; HCT116 p53–/–, 24 h): slightly upregulates p21 | upregulation of p21 ([4]; HT29, 24 h): slightly upregulates p21 | upregulation of p21 ([4]; TOV-112D, 24 h): mildly upregulates p21 | IC50 ([5]; Homo sapiens, TOV112D, 72 h, CellTiterGlo, read-out: IC50 values, TOV-1120 (R175H) (converted)): 19.3 µM | IC50 ([6]; Homo sapiens, HCT-116): 2.42 µM | p53-responsive reporter activity ([7]; 10 μM): activates the reporter activity | upregulation of PUMA ([8]; HCT116 (p53 wild-type), 24 h): mildly upregulates PUMA | upregulation of PUMA ([8]; HT29, 24 h): does not upregulate PUMA | upregulation of PUMA ([8]; TOV-112D, 24 h): does not upregulate PUMA | IC50 [13]: 713 nM | upregulation of ATF4 [9]: do not upregulate ATF4 | IC50 ([10]; Homo sapiens, HCT-116): 1.79 µM

[H]/N=C(/NC)NCCC[C@H](N)C(=O)O [L-NMMA, N-Methyl-L-arginine acetate]
effect on PG3- or ONC201-induced upregulation of ATF4 [14]: do not attenuate or block
